According to publication PMC6472029, “Steroids from the Deep-Sea-Derived Fungus Penicillium granulatum MCCC 3A00475 Induced Apoptosis via Retinoid X Receptor (RXR)-α Pathway” (Marine Drugs, 2019):
pKd: −log10 of the molar value.

Biological target: T1, RXRα (Homo sapiens, UniProt P19793)
T1 construct: gene RXRA; RXRα-LBD (N-terminal His-tagged)
T1 sequence (P19793 223-462 limits assumed): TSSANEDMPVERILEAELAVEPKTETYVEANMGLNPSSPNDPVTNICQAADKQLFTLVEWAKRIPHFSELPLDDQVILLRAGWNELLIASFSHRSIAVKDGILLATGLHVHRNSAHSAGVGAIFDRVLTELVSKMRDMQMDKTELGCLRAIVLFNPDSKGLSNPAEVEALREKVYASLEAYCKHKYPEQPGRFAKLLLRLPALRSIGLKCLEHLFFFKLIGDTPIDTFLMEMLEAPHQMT
Assay: fluorescence quenching with purified RXRα-LBD
Format: binding

SMILES | pKd
CC(=O)O[C@H]1C[C@H]2[C@H]3[C@H]([C@@H](O)C[C@]2(C)[C@H]1[C@H](C)C=C[C@H](C)C(C)C)[C@@]1(C)CC[C@H](O)CC1=C[C@@H]3O [compound 2, 16β-acetoxy-3β,7β,11β-trihydroxyergost-5,22-diene] | 4.86
CC(=O)O[C@H]1C[C@H]2[C@@H]3[C@@H](O)[C@@H](O)[C@H]4C[C@@H](O)CC[C@]4(C)[C@H]3[C@@H](O)C[C@]2(C)[C@H]1[C@H](C)/C=C/[C@H](C)C(C)C [compound 6, penicisteroid A] | 4.89
